Measurements taken from patent publication US5814636A, “Compounds with platelet aggregation inhibitor activity” (Meiji Seika Kabushiki Kaisha, priority 1994, dated 1998).
Counter-ions that a name gives are not always drawn.

Test system: human PRP (platelet rich plasma)
Test: Inhibition of platelet aggregation (human PRP, ADP-induced)
Assay type: cell-based
Settings: ADP 5 μM final as inducer, compound and PRP preincubated 2 minutes
Description: The structures of compounds obtained in Examples are as follows. The numbers of the compounds correspond to those of the examples. [drawing 11] Pharmacological test: Inhibition of platelet aggregation
The effect of the compound according to the present invention on inhibiting the platelet aggregation was examined with human PRP (platelet rich plasma).
Nine volumes of a blood sample was taken out of the vein of a normal human with a syringe in which one volume of a 3.8% sodium citrate solution was charged. The blood sample was centrifuged at 170×g at room temperature for 10 minutes. The supernatant thus obtained was isolated as PRP. The residual blood sample that PRP had been taken out was centrifuged at 2,700×g for 15 minutes. The supernatant was then taken as platelet poor plasma (PPP).
Platelet aggregation test was conducted with an aggligometer (PAM-8C; manufactured by MEBANICKS Co., Ltd.). Compounds to be tested were dissolved in a 50% DMSO saline, a 50% methanol saline or physiological saline. The compound and PRP were preincubated for 2 minutes. The ADP (CHRONO-PAR REAGENTS 384 ADP, CHRONO-LOG Corp.) was used as an inducer in the form of a dilution with saline so that the final concentration is 5 μM.
Anti-platelet aggregation activity was obtained as an inhibition rate to platelet aggregation effect of ADP in the absence of a compound to be tested as follows: [formula]

Compound	IC50 [nM]
O=C(O)COc1ccc(C(=O)CN2CCN(C3CCNCC3)CC2=O)cc1OCC(=O)O [Example 1, [[4-[[4-(piperidin-4-yl)-2-oxopiperazin-1-yl]acetyl]-o-phenylene]dioxy]diacetic acid trifluoroacetate]	55
CCOC(=O)COc1ccc(C(=O)CN2CCN(C3CCN(Cc4oc(=O)oc4C)CC3)CC2=O)cc1 [Example 15, ethyl 4-[[4-[1-(5-methyl-2-oxodioxol-4-yl)methylpiperidin-4-yl]-2-oxopiperazin-1-yl]acetyl]phenoxyacetate]	300
O=C(O)COC1CCN(C(=O)CN2CCC(N3CCNCC3)CC2)CC1 [Example 6, [[1-[4-(piperazin-4-yl)piperidin-1-yl]acetyl]piperidin-4-yl]oxyacetic acid trifluoroacetate]	2300
O=C(O)COC1CCN(C(=O)CN2CCN(C3CCNCC3)CC2=O)CC1 [Example 2, [[1-[4-(piperidin-4-yl)-2-oxopiperazin-1-yl]acetyl]piperidin-4-yl]oxyaceticacid trifluoroacetate]	80
O=C(O)COc1ccc(C(=O)CN2CCN(C3CCNCC3)CC2)cc1OCC(=O)O [Example 3, [[4-[4-(piperidin-4-yl)piperazin-1-yl]acetyl]-o-phenylene]dioxy]diacetic acid trifluoroacetate]	150
O=C(O)COc1ccc(C(=O)CN2CCN(C3CCNCC3)C(=O)C2=O)cc1 [Example 10, 4-[[4-(piperidin-4-yl)-2,3-dioxopiperazin-1-yl]acetyl]phenoxyacetic acid.hydrochloride]	470
CCOC(=O)COc1ccc(C(=O)CN2CCN(C3CCNCC3)CC2=O)cc1OCC(=O)OCC [Example 4]	560
CCOC(=O)COc1ccc(C(=O)CN2CCN(C3CCNCC3)CC2=O)cc1 [Example 14, ethyl 4-[[4-(piperidin-4-yl)-2-oxopiperazin-1-yl]acetyl]phenoxyacetate]	250
O=C(O)COc1ccc(C(=O)CN2CC(=O)N(C3CCNCC3)CC2=O)cc1 [Example 12, 4-[[4-(piperidin-4-yl)-2,5-dioxopiperazin-1-yl]acetyl]phenoxyacetic acid hydrochloride]	1200
CCCCOC(=O)COc1ccc(C(=O)CN2C(=O)CN(C3CCNCC3)CC2=O)cc1 [Example 7, n-butyl 4-[[4-(piperidin-4-yl)-2,6-dioxopiperazin-1-yl]acetyl]phenoxyacetate hydro chloride]	240
O=C(O)COc1ccc(C(=O)CN2CCN(C3CCNCC3)CC2=O)cc1 [Example 5]	32
CCCCOC(=O)COc1ccc(C(=O)CN2CCN(C3CCNCC3)CC2=O)cc1 [Example 13, n-butyl 4-[[4-(piperidin-4-yl)-2-oxopiperazin-1-yl]acetyl]phenoxyacetate dihydrochloride]	49
O=C(O)CCc1ccc(C(=O)CN2CCN(C3CCNCC3)CC2=O)cc1 [Example 16, 3-[4-[[4-(piperidin-4-yl)-2-oxopiperazin-1-yl]acetyl]phenyl]propionic acid trifluoroacetate]	420
O=C(O)COc1ccc(C(=O)CN2C(=O)CN(C3CCNCC3)CC2=O)cc1 [Example 8, 4-[[4-(piperidin-4-yl)-2,6-dioxopiperazin-1-yl]acetyl]phenoxyacetic acid hydrochloride]	19
CCCCOC(=O)COc1ccc(C(=O)CN2CCN(C3CCNCC3)C(=O)C2=O)cc1 [Example 9, n-butyl 4-[[4-(piperidin-4-yl)-2,3-dioxopiperazin-1-yl]acetyl]phenoxyacetate hydro chloride]	1200
CCCCOC(=O)COc1ccc(C(=O)CN2CC(=O)N(C3CCNCC3)CC2=O)cc1 [Example 11]	1100
